Results taken from publication PMC9727064, “Performance assessment and economic analysis of a human Liver-Chip for predictive toxicology” (Communications Medicine, 2022).
“Also recorded” adds a separate entry of the source. Read-outs that look alike come from different tables or passages of the source.

Legend:
[1] = system: human Liver-Chip (primary human hepatocytes); experiment: Liver-Chip albumin production in top channel effluent (ELISA); type: cell-based
Excerpt: (§1) Cycles 1 to 4 tested 6–8 concentrations in duplicate for each of 10–13 drugs. To determine which sampling strategy was optimal for cycles 1 to 4 (16 doses × 1 replicate, 8 × 2, 5 × 3, or 4 × 4), we generated three different “dose-response” synthetic datasets, each distorted by different noise levels (low, medium, or high). For each of these datasets, we performed curve-fitting analyses and calculated the Root Mean Square Error between the “true” and estimated IC50 parameter. […] Some drugs were also repeated across cycles (on different donors or at different concentrations) to ensure experimental robustness. However, to replicate a more typical study design likely to be carried out by scientists in the pharmaceutical industry, we created cycle 5 with 6 drugs, where each was tested in 4 concentrations in triplicate. For each cycle, chips were dosed with drug over 8 days (referred to as Day 0 through Day 7).
(§2) The drug dosing concentrations were determined from the unbound human Cmax of each drug. First, the expected fraction of drug unbound in media with 2% FBS was extrapolated from plasma binding data for each drug. Dosing concentrations were then back calculated such that the unbound fraction in media would reflect relevant multiples of unbound human Cmax (Supplementary Data 1).
(§3) On the first dosing day (Day 0), all chips were imaged using the ECHO microscope. Five hundred microliters of effluent was collected from all four reservoirs of the pod and placed in a labeled 96-well plate. After collection, all the remaining media was carefully aspirated before dosing with 3.8 mL of corresponding dosing solution. Dosing occurred on study days 0, 2, and 4 for chips flowing at 30 µL/h, and on days 0, 1, 2, 3, 4, 5, and 6 for chips flowing at 150 µL/h. Effluent collection occurred on days 1, 3, and 7.
(§4) Top channel outlet effluents were analyzed to quantify albumin and alanine transaminase (ALT) levels on days 1, 3, and 7 using sandwich ELISA kits (Abcam, Albumin ab179887, ALT ab234578) according to vendor-provided protocols. Frozen (−80 °C) effluent samples were thawed overnight at 4 °C prior to assay. The Hamilton Vantage liquid handling platform was used to manage effluent dilutions (1:500 for albumin, neat for ALT), preparation of standard curves, and addition of antibody cocktail. Absorbance at 450 nm was measured using the SynergyNeo Microplate Reader (BioTek).
All statistical analyses were conducted in R[21] (version 4.1.2) and figures were produced using the R package ggplot2[22] (version 3.3.5). The dose-response analysis (Fig. 4) was carried out using the popular drc R package developed by Ritz et al.[23] using the generalized log-logistic dose-response model. The error bars in Figs. 3 and 4, correspond to the standard errors of the mean. The circles in Fig. 3 correspond to the samples used to calculate the corresponding statistics. The analysis of significance in Fig. 3 was performed using paired t-test across different days (same donor) and unpaired t-test across different donors (same day). In Fig. 3 the number of samples used were n = 3 for donor two, and n = 4 for donor three. For both donors, the number of the freshly thawed hepatocyte samples used to estimate the corresponding log2(Fold Change) were n = 4. Finally, the analysis of significance in Fig. 3 was performed using paired t-test.

[2] = system: human Liver-Chip (Kupffer cell activation); experiment: IL-6 and TNF-alpha in Liver-Chip effluent (MSD U-PLEX); settings: effluent of Liver-Chips from three donors, no inflammatory stimulant
Protocol: Samples were added to plates manually at a 1:2 dilution. Plates were read for cytokine release on the MESO QuickPlex SQ 120 (Meso Scale Discoveries).

[3] = system: human Liver-Chip (primary human hepatocytes); experiment: Liver-Chip alanine transaminase (ALT) release in top channel effluent (ELISA); type: cell-based
Excerpt: as §1, §2, §3, §4

[4] = system: 3D spheroid cultures of primary human hepatocytes; settings: cited from earlier work; for Spheroid false negative: Yes/No, also No for drugs not tested in spheroid; for Spheroid MOS: 3D hepatic spheroids, previously published data
[5] = cited from earlier work
[6] = concentration causing a 50% reduction in albumin production
[7] = lowest concentration causing an increase in ALT protein
[8] = human, total plasma Cmax, ref Xu, J. J. et al. (36)
[9] = expanded drug list, lowest multiplier causing a 50% reduction in albumin production
[10] = expanded drug list, lowest concentration causing an increase in ALT release

Row | SMILES | Albumin IC50 Donor 1 [1, 6] | Albumin IC50 Donor 2 [1, 6] | Albumin IC50 Donor 3 [1, 6] | IL-6 and TNFα cytokine production after treatment [2] | ALT_levels ([3]; Concentration_Day3 = 45, one line per replicate chip) | ALT Donor 1 [3, 7] | ALT Donor 2 [3, 7] | ALT Donor 3 [3, 7] | Spheroid false negative [4] | Toxicity detection in 3D hepatic spheroids ([4]; threshold 50) | Human Cmax Total [5, 8] | Spheroid MOS [4] | Albumin IC50 Donor 1 [1, 9] | Albumin IC50 Donor 2 [1, 9] | ALT Donor 1 [3, 10] | ALT Donor 2 [3, 10] | Human Cmax Total ([5]; human therapeutic total plasma Cmax from literature, ref Sivapalasingam, S. & Steigbigel, N. (67)) | Human Cmax Total ([5]; human therapeutic total plasma Cmax from literature, ref Xu, J. J. et al. (36))
1 | C[C@H]1COc2c(N3CCN(C)CC3)c(F)cc3c(=O)c(C(=O)O)cn1c23 [Levofloxacin] | >15 multiples of the unbound human Cmax | >45 multiples of the unbound human Cmax | >45 multiples of the unbound human Cmax | no concentration-dependent change in cytokine levels; also recorded: did not detect any concentration-related change; also recorded: unable to see any concentration-dependent increase in cytokine production | 0 | >15 multiples of the unbound human Cmax | >45 multiples of the unbound human Cmax | >45 multiples of the unbound human Cmax | Yes | not detected as toxic drugs in spheroids | 15.8 µM | – | – | – | – | – | – | –
2 | Cc1c(C)c2c(c(C)c1O)CCC(C)(COc1ccc(CC3SC(=O)NC3=O)cc1)O2 (stereo not drawn) [Troglitazone] | 24 multiples of the unbound human Cmax | 122 multiples of the unbound human Cmax | – | – | – | 300 multiples of the unbound human Cmax | 300 multiples of the unbound human Cmax | – | No | – | 6.08 µM | 2.3 | – | – | – | – | – | –
3 | N[C@@H]1[C@H]2CN(c3nc4c(cc3F)c(=O)c(C(=O)O)cn4-c3ccc(F)cc3F)C[C@@H]12 [Trovafloxacin] | 82 multiples of the unbound human Cmax | 78 multiples of the unbound human Cmax | 31 multiples of the unbound human Cmax | no concentration-dependent change in cytokine levels; also recorded: did not detect any concentration-related change; also recorded: unable to see any concentration-dependent increase in cytokine production | – | 100 multiples of the unbound human Cmax | 100 multiples of the unbound human Cmax | 30 multiples of the unbound human Cmax | – | – | – | – | – | – | – | – | – | –
4 | CCOC(=O)CN[C@@H](C(=O)N1CC[C@H]1C(=O)NCc1ccc(/C(N)=N\O)cc1)C1CCCCC1 [Ximelagatran] | – | – | – | – | – | – | – | – | Yes | – | – | 335 | 32 unbound human Cmax multiplier | > 300 unbound human Cmax multiplier | 30 unbound human Cmax multiplier | > 300 unbound human Cmax multiplier | 0.45 µM | –
5 | CC(c1cc2ccccc2s1)N(O)C(N)=O (stereo not drawn) [Zileuton] | – | – | – | – | – | – | – | – | Yes | – | – | >7.7 | > 100 unbound human Cmax multiplier | 210 unbound human Cmax multiplier | > 100 unbound human Cmax multiplier | > 300 unbound human Cmax multiplier | – | 13.1 µM
